This note sets out measurements from publication PMC6291243 (The Journal of organic chemistry, 2018).

The target of one assay is T1, LipM (Streptomyces sp. SANK 60405, UniProt D4QF26).
T1 sequence (D4QF26 1-233): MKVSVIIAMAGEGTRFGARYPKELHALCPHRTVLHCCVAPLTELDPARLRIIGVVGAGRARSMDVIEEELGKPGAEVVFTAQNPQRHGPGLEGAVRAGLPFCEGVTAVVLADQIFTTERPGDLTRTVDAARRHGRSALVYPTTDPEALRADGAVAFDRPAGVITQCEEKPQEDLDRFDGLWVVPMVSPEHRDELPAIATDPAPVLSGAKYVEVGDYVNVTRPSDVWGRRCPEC
Nature of the assay: HPLC of UDP-sugar, coupled with phosphorylase. The conditions noted are these: generated in situ from 13b; UTP. It is filed as biochemical.

The target of another assay is Mur20 (Streptomyces sp. NRRL 30471, UniProt F2WUD2). Nature of the assay: HPLC, specific activity. It is filed as biochemical. The conditions noted are these: amine donor; 1 mM 11a, 50 mM potassium phosphate pH 7.5, 30 °C.

Regarding `NC[C@H]1O[C@H](OP(=O)(O)O)C[C@@H]1O` [5-amino-2,5-dideoxy-α-D-ribose-1-phosphate], the “HPLC of UDP-sugar, coupled with phosphorylase” value on LipM is on record as “either enzyme was substituted with the respective orthologous proteins LipP or LipM”.

Take `N[C@@H](Cc1ccc(O)cc1)C(=O)O` [L-Tyr]: on Mur20, the “HPLC, specific activity” value is reported as “the specific activity for Mur20 was highest using L-Tyr as an amine donor”.
